Results on eleven molecules are retold here after patent publication US9198420B2, “Rodenticidal norbormide analogues” (priority 2012, dated 2015).

Data set [1] can be described thus: Rat serum assay (release of NRB or NRB analogue). Format: in vitro ADME. To be noted: 80% rat serum, 37° C., 3 h, n = 3. As to the method:
The hydrolytic stability of compounds of the invention in rat blood was evaluated using in vitro rat serum obtained from Sigma-Aldrich and stored at −78° C. Similar assay conditions to those reported by Li Di and co-workers (Int. J. Pharm. 2005, 297, 110-119) were followed [200 μL total volume, 80% rat serum (diluting with phosphate buffer (0.1 M, pH 7.4)), at a final compound concentration of 200 μM, 2.5% DMSO overall, 37° C., 3 h, n=3] using an Eppendorf Thermomixer Compact. Reactions were quenched by transferring 150 μL of the incubation mixture to 450 μL of ice-cold acetonitrile, affording a final compound/NRB or NRB analogue concentration of 50 μM. Samples were centrifuged at 14,500×g for 15 min using an Eppendorf Mini Spin Plus centrifuge, at ambient temperature. 400 μL of the supernatant was removed and transferred to clean tubes. Analysis was by RP-LCMS at an injection volume of 20 μL. Each compound and corresponding NRB or NRB analogue were subjected to external calibration curves at 50 μM, 100 μM and 200 μM to allow conversion of absorbance unit area into nmol, from which the percentage of NRB or NRB analogue released from each compound was calculated.

The nature of data set [2]: Simulated gastric fluid (SGF) hydrolytic stability assay. The data set is classed as physicochemical. The settings on record: simulated gastric fluid without pepsin, pH 1.2, 37° C., 1 h, n = 3; for % NRB released, Hydrolytic Stability (simulated gastric fluid): footnote c: compounds not exhibiting vasoconstriction. The method, then:
All in vivo candidates were subjected to a 1 h hydrolytic stability appraisal in the presence of SGF, without pepsin (United States Pharmacopoeia 24) [200 μL total volume, sodium chloride solution (0.03 M) acidified to pH 1.2 with concentrated hydrochloric acid, at a final compound concentration of 200 μM, 2.5% DMSO overall, 37° C., n=3], to investigate any potential chemical instabilities that may occur in the acidic environment of the stomach prior to uptake. Analysis was by RP-LCMS at an injection volume of 5 μL.

A further data set deals with rat caudal artery. In words: Rat caudal artery ring contractile force (vasoconstrictory activity). Set-up: species or system rat (male Wistar). The method, then:
Male Wistar rats (150-250 g) were obtained from Charles River Italia (Milano, Italy) and killed by decapitation. Ventral caudal artery was isolated, placed in Tyrode solution at room temperature and cleaned of extraneous fatty and connective tissue under a dissection microscope. All vessels were cut into rings 2 mm long, mounted on a custom-built plexiglass support by means of two intraluminal tungsten wires and placed in 20 mL double-jacketed organ baths filled with Tyrode solution of the following composition (mM): NaCl 125, KCl 5, CaCl2 2.7, MgSO4 1, KH2PO4 1.2, NaHCO3 25 and glucose 11, maintained at 37° C., pH 7.35, bubbled with 95% O2 and […]. The endothelium was removed by gently rubbing the lumen of the rings with a very thin rough-surfaced tungsten wire (caudal artery). The mechanical activity of the rings was detected by means of an isometric force transducer (Ugo Basile, Comerio, Italy) coupled to a pen recorder (Ugo Basile, Comerio, Italy). Rings were passively stretched to impose a resting tension (2 g) and were allowed to equilibrate for 60 min. After equilibration, each ring was repeatedly simulated with both KCl (90 mM) and phenylephrine (10 μM) until reproducible responses were obtained. To verify the absence of the endothelium, rings contracted with 1 μM phenylephrine were exposed to […] carbamylcholine. […] Each compound was tested for the vasoconstrictor activity at a concentration of 50 μM, which has been previously reported to be the one evoking the maximal response to norbormide. The contractile responses to the compounds were expressed as percent of the 90 mM KCl response.

The mark [3] stands for this setting: Table 5, compounds of formula (III).

In the case of `O=C(CCC(=O)OCN1C(=O)C2C3C=C(C(O)(c4ccccc4)c4ccccn4)C(C3=C(c3ccccc3)c3ccccn3)C2C1=O)OCCOC(=O)CCC(=O)OCN1C(=O)C2C3C=C(C(O)(c4ccccc4)c4ccccn4)C(C3=C(c3ccccc3)c3ccccn3)C2C1=O` (stereo not drawn) [Compound 27, N-[α-(Ethylenebis(hydrogensuccinoyloxy))methyl]-5-(α-hydroxy-α-2-pyridylbenzyl)-7-(α-2-pyridylbenzylidene)-5-norbornene-2,3-dicarboximide dimer], in data set [1], the “% NRB released, Rat Serum” value came to 20.8 ± 0.7%. Moreover, the “% NRB released, Hydrolytic Stability” value in data set [2] was 0%. The “Vasoconstriction: maximum contractile effect as a % of 90 mM KCl contraction” value in the data set with rat caudal artery (setting [3]) came to 0%; in the data set on rat caudal artery (n = 3, pre-cleavage, Table 6) it was 0%.

For `O=C(CCCCCCC(=O)OCN1C(=O)C2C3C=C(C(O)(c4ccccc4)c4ccccn4)C(C3=C(c3ccccc3)c3ccccn3)C2C1=O)OCN1C(=O)C2C3C=C(C(O)(c4ccccc4)c4ccccn4)C(C3=C(c3ccccc3)c3ccccn3)C2C1=O` (stereo not drawn) [Compound 23, 5-(α-Hydroxy-α-2-pyridylbenzyl)-7-(α-2-pyridylbenzylidene)-N-suberoyloxymethyl-5-norbornene-2,3-dicarboximide dimer], in data set [1], the “% NRB released, Rat Serum” value was 14.9 ± 5.0%. Moreover, the “% NRB released, Hydrolytic Stability” value in data set [2] was 0%. In addition, the “Vasoconstriction: maximum contractile effect as a % of 90 mM KCl contraction” value with rat caudal artery (setting [3]) is listed as 0%; in the data set on rat caudal artery (n = 3, pre-cleavage, Table 6) it was 0%.

In the case of `O=C(CCCCCCCCCCC(=O)OCN1C(=O)C2C3C=C(C(O)(c4ccccc4)c4ccccn4)C(C3=C(c3ccccc3)c3ccccn3)C2C1=O)OCN1C(=O)C2C3C=C(C(O)(c4ccccc4)c4ccccn4)C(C3=C(c3ccccc3)c3ccccn3)C2C1=O` (stereo not drawn) [Compound 25, N-Dodecanedioyloxymethyl-5-(α-hydroxy-α-2-pyridylbenzyl)-7-(α-2-pyridylbenzylidene)-5-norbornene-2,3-dicarboximide dimer], in data set [1], the “% NRB released, Rat Serum” value is reported as less than 5%. Besides, the “% NRB released, Hydrolytic Stability” value in data set [2] was 0%. Besides, the “Vasoconstriction: maximum contractile effect as a % of 90 mM KCl contraction” value stood at 0% in the data set with rat caudal artery (setting [3]) and 0% in the data set on rat caudal artery (n = 3, pre-cleavage, Table 6).

As to `CC(CN1C(=O)C2C3C=C(C(O)(c4ccccc4)c4ccccn4)C(C3=C(c3ccccc3)c3ccccn3)C2C1=O)OC(=O)C=Cc1ccccc1` (stereo not drawn) [Compound 135, N-2′-Cinnamoyloxypropyl-5-(α-hydroxy-α-2-pyridylbenzyl)-7-(α-2-pyridylbenzylidene)-5-norbornene-2,3-dicarboximide], in data set [1], the “% NRB released, Rat Serum” value is listed as 33.8 ± 6.1%. The “% NRB released, Hydrolytic Stability (simulated gastric fluid)” value (“% NRB released … (simulated gastric fluid)” for short) in data set [2] is 0^c %. The “Vasoconstriction: maximum contractile effect as a % of 90 mM KCl contraction” value worked out at 0% in the data set with rat caudal artery (Table 1, compound at 50 μM) and 0% in the data set with rat caudal artery (Table 4, pre-cleavage, n = 3).

`O=C(CCCCC(=O)OCN1C(=O)C2C3C=C(C(O)(c4ccccc4)c4ccccn4)C(C3=C(c3ccccc3)c3ccccn3)C2C1=O)OCN1C(=O)C2C3C=C(C(O)(c4ccccc4)c4ccccn4)C(C3=C(c3ccccc3)c3ccccn3)C2C1=O` (stereo not drawn) [Compound 22, N-Adipoyloxymethyl-5-(α-hydroxy-α-2-pyridylbenzyl)-7-(α-2-pyridylbenzylidene)-5-norbornene-2,3-dicarboximide dimer]: the “% NRB released, Rat Serum” value in data set [1] amounted to 13.4 ± 0.2%. The “% NRB released, Hydrolytic Stability” value in data set [2] is 0%. The “Vasoconstriction: maximum contractile effect as a % of 90 mM KCl contraction” value in the data set with rat caudal artery (setting [3]) was determined as 0%; with rat caudal artery (n = 3, pre-cleavage, Table 6), 0%.

As for `O=C(OCCN1C(=O)C2C3C=C(C(O)(c4ccccc4)c4ccccn4)C(C3=C(c3ccccc3)c3ccccn3)C2C1=O)c1ccc(C(=O)OCCN2C(=O)C3C4C=C(C(O)(c5ccccc5)c5ccccn5)C(C4=C(c4ccccc4)c4ccccn4)C3C2=O)cc1` (stereo not drawn) [Compound 143, 5-(α-Hydroxy-α-2-pyridylbenzyl)-7-(α-2-pyridylbenzylidene)-N-2′-terephthaloyloxyethyl-5-norbornene-2,3-dicarboximide dimer], the “% NRB released, Rat Serum” value in data set [1] is on record as 27.5 ± 1.4%. In addition, the “% NRB released, Hydrolytic Stability” value in data set [2] was 0%. For the same molecule, the “Vasoconstriction: maximum contractile effect as a % of 90 mM KCl contraction” value in the data set with rat caudal artery (setting [3]) is listed as 0%; in the data set on rat caudal artery (n = 3, pre-cleavage, Table 6) it was 0%.

Consider `O=C(C=Cc1ccccc1)OCCN1C(=O)C2C3C=C(C(O)(c4ccccc4)c4ccccn4)C(C3=C(c3ccccc3)c3ccccn3)C2C1=O` (stereo not drawn) [Compound 120, N-2′-Cinnamoyloxyethyl-5-(α-hydroxy-α-2-pyridylbenzyl)-7-(α-2-pyridylbenzylidene)-5-norbornene-2,3-dicarboximide], for which the “% NRB released, Rat Serum” value in data set [1] is 14.1 ± 0.4%. For the same molecule, the “% NRB released … (simulated gastric fluid)” value in data set [2] is reported as 0^c %. Further, the “Vasoconstriction: maximum contractile effect as a % of 90 mM KCl contraction” value came out at 66% in the data set with rat caudal artery (Table 1, compound at 50 μM) and 66% in the data set on rat caudal artery (Table 4, pre-cleavage, n = 3).

As for `O=C(CCCCCCC(=O)OCCN1C(=O)C2C3C=C(C(O)(c4ccccc4)c4ccccn4)C(C3=C(c3ccccc3)c3ccccn3)C2C1=O)OCCN1C(=O)C2C3C=C(C(O)(c4ccccc4)c4ccccn4)C(C3=C(c3ccccc3)c3ccccn3)C2C1=O` (stereo not drawn) [Compound 140, 5-(α-Hydroxy-α-2-pyridylbenzyl)-7-(α-2-pyridylbenzylidene)-N-2′-suberoyloxyethyl-5-norbornene-2,3-dicarboximide dimer], the “% NRB released, Rat Serum” value in data set [1] was determined as 9.9 ± 1.3%. Further, in data set [2], the “% NRB released, Hydrolytic Stability” value was 0%. Besides, the “Vasoconstriction: maximum contractile effect as a % of 90 mM KCl contraction” value worked out at 0% in the data set on rat caudal artery (setting [3]) and 0% with rat caudal artery (n = 3, pre-cleavage, Table 6).

Consider `O=C(OCN1C(=O)C2C3C=C(C(O)(c4ccccc4)c4ccccn4)C(C3=C(c3ccccc3)c3ccccn3)C2C1=O)c1ccc(C(=O)OCN2C(=O)C3C4C=C(C(O)(c5ccccc5)c5ccccn5)C(C4=C(c4ccccc4)c4ccccn4)C3C2=O)cc1` (stereo not drawn) [Compound 26, 5-(α-Hydroxy-α-2-pyridylbenzyl)-7-(α-2-pyridylbenzylidene)-N-terephthaloyloxymethyl-5-norbornene-2,3-dicarboximide dimer], for which, in data set [1], the “% NRB released, Rat Serum” value is reported as less than 5%. In addition, the “% NRB released, Hydrolytic Stability” value in data set [2] was 0%. The “Vasoconstriction: maximum contractile effect as a % of 90 mM KCl contraction” value was found to be 0% in the data set on rat caudal artery (setting [3]) and 0% in the data set on rat caudal artery (n = 3, pre-cleavage, Table 6).

Consider `O=C(CCCCC(=O)OCCN1C(=O)C2C3C=C(C(O)(c4ccccc4)c4ccccn4)C(C3=C(c3ccccc3)c3ccccn3)C2C1=O)OCCN1C(=O)C2C3C=C(C(O)(c4ccccc4)c4ccccn4)C(C3=C(c3ccccc3)c3ccccn3)C2C1=O` (stereo not drawn) [Compound 139, N-2′-Adipoyloxyethyl-5-(α-hydroxy-α-2-pyridylbenzyl)-7-(α-2-pyridylbenzylidene)-5-norbornene-2,3-dicarboximide dimer], for which, in data set [1], the “% NRB released, Rat Serum” value stood at 11.7 ± 1.6%. The “% NRB released, Hydrolytic Stability” value in data set [2] was 0%. The “Vasoconstriction: maximum contractile effect as a % of 90 mM KCl contraction” value worked out at 20% with rat caudal artery (setting [3]) and 20% in the data set with rat caudal artery (n = 3, pre-cleavage, Table 6).

For the molecule `CCCCCCCCCCCC(=O)OCCN1C(=O)C2C3C=C(C(O)(c4ccccc4)c4ccccn4)C(C3=C(c3ccccc3)c3ccccn3)C2C1=O` (stereo not drawn) [Compound 112, N-2′-Dodecanoyloxyethyl-5-(α-hydroxy-α-2-pyridylbenzyl)-7-(α-2-pyridylbenzylidene)-5-norbornene-2,3-dicarboximide], the “% NRB released, Rat Serum” value in data set [1] is on record as 19.3 ± 1.3%. Moreover, the “% NRB released … (simulated gastric fluid)” value in data set [2] was 0^c %. Moreover, the “Vasoconstriction: maximum contractile effect as a % of 90 mM KCl contraction” value is given as 0% with rat caudal artery (Table 1, compound at 50 μM) and 0% in the data set with rat caudal artery (Table 4, pre-cleavage, n = 3).
